In patent US5843941A, “Ras farnesyl transferase inhibitors” (Genentech, Inc., priority 1994, dated 1998):

Assays:
[1] = tested on: src-transformed rat-1 fibroblasts; assay: Cell growth of src-transformed rat-1 fibroblasts; assay type: cell-based; details: up to 25 μM; FIG. 7 Panel D
Procedure: (§1) To examine the effects of farnesyltransferase inhibition on cell growth, three cell lines (ras-transformed rat-1, src-transformed rat-1, and parental rat-1 cells) were seeded (see FIG. 7) at low density and allowed to grow for 10 days in the absence or presence of increasing concentrations of BZA-5B (compound 37). See Example 128 for description of cells. On day 0, cells were plated in monolayer culture at 2×10^3 cells per well (24-well plates) in 1 ml DMEM supplemented with 10% fetal calf serum, 100 U/ml penicillin, 100 μg/ml streptomycin, 0.5 mM DTT, 0.025% DMSO, and the indicated concentration of BZA-5B (compound 37). On days 3 and 7, cells were washed and refed with the same medium. At the time indicated in FIG. 7, cells were harvested by trypsinization and counted in a Coulter counter. Panels A, C, E show the growth rate of each cell line in the absence of inhibitor. Panels B, D, F show the inhibition of growth as a function of concentration of BZA-5B at each time point. The "100% values" correspond to the appropriate cell numbers in Panels A, C, E at the indicated time. Each value represents a single incubation. As shown in the panels A, C, and E, all three cell lines grew logarithmically with no added inhibitor. […] The growth of src-transformed (Panel D) and untransformed cells (Panel F) were not affected at concentrations of BZA-5B up to 25 μM.

[2] = tested on: ras-transformed rat-1 fibroblasts; assay: Cell growth of ras-transformed rat-1 fibroblasts; assay type: cell-based; details: Fibroblast, 240 h, 10 days, FIG. 7 Panel B
Procedure: as §1

[3] = tested on: untransformed parental rat-1 fibroblasts; assay: Cell growth of untransformed parental rat-1 fibroblasts; assay type: cell-based; details: up to 25 μM; FIG. 7 Panel F
Procedure: as §1

CAAX farnesyltransferase = CAAX farnesyltransferase (Rattus norvegicus, UniProt Q02293+Q04631); assay: In vitro inhibition of CAAX farnesyltransferase; assay type: biochemical; design: purified to homogeneity from rat brain homogenates; from tissue; host or cells: rat brain; alternatively recombinant enzyme from a baculovirus expression system; details: Table D
Procedure, shortened: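 Native or recombinant (baculovirus-infected cells, Q-Sepharose purified) farnesyltransferase incubated 30 min at 37 °C. [3H]farnesyl transfer to p21H-ras measured by SDS/trichloroacetic acid precipitation, nitrocellulose filtration and scintillation counting.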

[4] = tested on: farnesylated proteins F1, F2 and F3 in Met18b-2 cells; assay: Inhibition of intracellular farnesylation in intact Met18b-2 cells, Triton-soluble proteins F1, F2, F3; assay type: cell-based, Chinese hamster; details: Cricetulus griseus, read-out: EC 90% "B isomer"
Excerpt: To study farnesylation in intact cells we used Met18b-2 cells, a line of Chinese hamster ovary (CHO) cells that takes up [3H]mevalonate efficiently (see Faust, J., and Krieger, M. J. Biol. Chem. 262, 1966 (1987)) owing to the production of a mevalonate transport protein (see Kim, C. M., Goldstein, J. L., Brown, M. S. J. Biol. Chem. 267, 23113 (1992)). The [3H]mevalonate is converted by the cells into [3H]farnesyl pyrophosphate and [3H]geranylgeranyl pyrophosphate, which are then attached to proteins (Kim, C. M., Goldstein, J. L., Brown, M. S. J. Biol. Chem. 267, 23113 (1992)). In the assay, stock cultures of Met18b-2 cells were seeded at a density of 3-105 cells per 60 mm dish in 3 ml of medium A (Dulbecco's modified Eagle medium/Ham's F12 medium (1:1, v/v) containing 100 U/ml penicillin and 100 μg/ml streptomycin) supplemented with 5% (v/v) fetal calf serum (FCS). On day 3, each monolayer was refed with 1 ml medium A supplemented with 1% FCS (dialyzed against 0.15 M NaCl). At this point the cells were treated with 100 μM compactin (see Brown, M. S., Faust, J. R., Goldstein, J. L., Kaneko, I., and Endo, A. J. Biol. Chem. 253, 1121 (1978)) which blocks the synthesis of unlabeled mevalonate within the cells. Each compound was dissolved at 25 mM in DMSO/10 mM DTT immediately before use and 10 μl of this solution added directly. After 2 hr incubation at 37° C., each monolayer received 100 μCi [3H]mevalonate (60 Ci/mmol, American Radiolabeled Chemicals, Inc.) added in 100 μl of the medium A, and the incubation continued for 4 hr. The cells were harvested by rinsing three times with 3 ml of 50 mM Tris-HCl/0.15 M NaCl (pH 7.5). 300 μl of lysis buffer (0.5X Dulbecco's phosphate-buffered saline containing 1% Triton X-100, 5 μg/ml leupeptin, 5 μg/ml pepstatin, 0.5 mM phenylmethylsulfonyl fluoride, and 0.05 U/ml aprotinin) was added to each monolayer. After incubation on ice for 5 mon, the lysates were centrifuged 30 sec in a microfuge at 12,000 g. The resulting supernatant was tranferred to a new tube, and each pellet was resuspended in 60 μl of lysis buffer. Protein concentrations were determined using the BCA protein assay reagent (Pierce) according to the manufacturer's instructions. Detergent-soluble (supernatant) and -insoluble (pellet) samples were mixed with 2X SDS sample buffer (see Laemmli, U. K. Nature 227, 680 (1970)) and heated at 95° C. for 5 min before electrophoresis. Each lane contained 90 μg protein, and was run on a 12.5% SDS-polyacrylamide gel. The gel was dried, treated with ENTENSIFY (NEN-DuPont), and exposed to Kodak XOMAT-AR film for 9 h at -80° C. to allow visualization of all prenylated proteins. Migration of [14C]methylated molecular weight standards (Amersham) were used as markers.
The results of this assay are shown in FIG. 3, using a final concentration of 250 μM for each inhibitor. […] As shown in the figure, none of the control peptides or control benzodiazepine-peptideomimetics altered the prenylation of proteins in intact cells.
Using the same cells and procedures followed above for Example 125, we measured the dose dependence upon the inhibition of farnesylation in intact cells. […] Compound 37B inhibited the famesylation of F1-3 detectably at 10 μM, and almost completely at 25 μM.
In this manner, it is possible to obtain data regarding the comparative potency of these inhibitors upon the level of intracellular farnesylation. We have chosen to report the EC90% values for these inhibitors as the concentration required for a reduction in the Triton- soluble labelling (denoted F-1, F-2, and F-3) to 90% of control cells (untreated).

CAAX farnesyltransferase, sequence (Q02293 whole entry, one chain of several): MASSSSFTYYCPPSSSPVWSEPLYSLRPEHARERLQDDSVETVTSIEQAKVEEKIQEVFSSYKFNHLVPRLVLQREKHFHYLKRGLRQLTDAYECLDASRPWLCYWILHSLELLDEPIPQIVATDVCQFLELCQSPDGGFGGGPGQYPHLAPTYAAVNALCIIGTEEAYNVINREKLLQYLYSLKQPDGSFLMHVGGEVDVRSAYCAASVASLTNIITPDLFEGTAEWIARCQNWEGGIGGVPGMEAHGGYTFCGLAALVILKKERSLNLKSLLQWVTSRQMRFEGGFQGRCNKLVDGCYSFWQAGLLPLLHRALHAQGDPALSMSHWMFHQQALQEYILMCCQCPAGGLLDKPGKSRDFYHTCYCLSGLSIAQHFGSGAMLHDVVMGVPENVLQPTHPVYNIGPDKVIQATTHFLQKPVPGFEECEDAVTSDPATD

Compound	growth of src-transformed cells [1]	inhibition at 25 µM [2] [%]	growth of untransformed cells [3]	EC50 (CAAX farnesyltransferase; EC50 (μM) "A", diastereomer A) [µM]	EC50 (CAAX farnesyltransferase; EC50 (μM) "B", diastereomer B) [µM]	EC90 [4] [µM]
COC(=O)[C@H](CCSC)NC(=O)CN1C(=O)C(N(C)C(=O)[C@@H](N)CS)N=C(c2ccccc2)c2ccccc21 (stereo partly drawn) [BZA-5B]	not affected	~90	not affected	–	–	–
CN(C(=O)[C@@H](N)CSSC(C)(C)C)C1N=C(c2ccccc2)c2cc(Cl)ccc2N(CC(=O)N[C@@H](Cc2ccccc2)C(=O)OC2CCCCC2)C1=O (stereo partly drawn) [compound 120, N-[[3-[(2-amino-3-tert-butylthiomercapto-1-oxopropyl)methylamino]-2,3-dihydro-2-oxo-5-phenyl-7-chloro-1H-1,4-benzodiazepin-1-yl]acetyl]-L-phenylalanine cyclohexyl ester]	–	–	–	> 3	> 3	5
